# Source: patent US8029832B2, “Obesity and metabolic syndrome treatment with tanshinone derivatives which increase metabolic activity” (priority 2003, dated 2011)
# Experiments:
# AMPK = AMPK activity of double or triple combinations of tanshinone derivatives in muscle cells; format: cell-based; settings: combinations of the four tanshinone derivatives
# Description: Using muscle cells, this example was carried out to confirm synergistic effects of AMPK activity with respect to the combination ratio between derivatives, which contained tanshinone I, tanshinone IIA, cryptotanshinone and 15,16-dihydrotanshinone I, as main ingredients. That is, we have attempted to confirm inter-complementary functions between derivatives according to gene expression as shown in Example 5 and thereby synergistic effects by any combination of tanshinone derivatives through AMPK activity.
# The respective ingredients of tanshinone I, tanshinone IIA, cryptotanshinone and 15,16-dihydrotanshinone I were doubly or triply combined to prepare different compositions. AMPK activity of the prepared compositions and the AMPK activity of respective ingredients included in those compositions were compared to confirm synergistic effects. In addition, we have attempted to confirm AMPK activity with respect to changes in the combination ratio by varying the ratio between ingredients in the compositions, and to obtain synergistic effects of activity by any combination of tanshinone derivatives.
# hepatocytes = settings: Planta Med. 2002, 68, 1077-1081; cited from earlier work
# cardiac myocytes [1] = settings: Biochemical Pharmacology 64, 745-750 (2002); cited from earlier work
# mitochondria = settings: Biochemical Pharmacology 65, 51-57, 2003; cited from earlier work
# cardiac myocytes [2] = settings: Planta Med. 2002, 68, 1103-1107; cited from earlier work
# cardiac fibroblasts = settings: Planta Med. 2002, 68, 1103-1107; cited from earlier work
molecule,measurement,setting,value
"15,16-Dihydrotanshinone I",enhancement effect on AMPK activity by combinational use of two or more of these compounds,AMPK,significantly increased
C[C@H]1COC2=C1C(=O)C(=O)c1c2ccc2c1CCCC2(C)C [cryptotanshinone],enhancement effect on AMPK activity by combinational use of two or more of these compounds,AMPK,significantly increased
Cc1cccc2c3c(ccc12)C(=O)C1=C(OCC1C)C3=O (stereo not drawn) [dihydroisotanshinone I],effect against menadione-induced cytotoxicity in hepatocytes,hepatocytes,hepatoprotective effects
Cc1c(S(=O)(=O)O)oc2c1C(=O)C(=O)c1c-2ccc2c1CCCC2(C)C [tanshinone IIA sulfonate],hypertrophy of cardiac myocytes induced by angiotensin II,cardiac myocytes [1],attenuates hypertrophy of cardiac myocytes induced by angiotensin II
same,electron-transfer reaction in mitochondria,mitochondria,facilitates an electron-transfer reaction in mitochondria
Cc1coc2c1C(=O)C(=O)c1c-2ccc2c1CCCC2(C)C [tanshinone IIA],enhancement effect on AMPK activity by combinational use of two or more of these compounds,AMPK,significantly increased
Cc1cccc2c3c(ccc12)C(O)=C(C(C)CO)C(=O)C3=O (stereo not drawn) [tanshinone VI],hypertrophy of cardiac myocytes,cardiac myocytes [2],attenuates hypertrophy of cardiac myocytes
same,synthesis of collagen by cardiac fibroblasts,cardiac fibroblasts,inhibits synthesis of collagen by cardiac fibroblasts
tanshinone I,enhancement effect on AMPK activity by combinational use of two or more of these compounds,AMPK,significantly increased
